According to ChEMBL document CHEMBL1124825 (J Med Chem, 1990):

Tests used:
L1210 = experiment: Inhibitory activity for the growth inhibition of L1210 cell line.; assay type: functional, cell-based; details: Mus musculus
Dihydrofolate reductase = target: T1, Dihydrofolate reductase (Mus musculus, UniProt P00375); experiment: Inhibitory activity of Dihydrofolate reductase derived from L1210 cell line.; assay type: cell-based
T1 sequence (P00375 whole entry): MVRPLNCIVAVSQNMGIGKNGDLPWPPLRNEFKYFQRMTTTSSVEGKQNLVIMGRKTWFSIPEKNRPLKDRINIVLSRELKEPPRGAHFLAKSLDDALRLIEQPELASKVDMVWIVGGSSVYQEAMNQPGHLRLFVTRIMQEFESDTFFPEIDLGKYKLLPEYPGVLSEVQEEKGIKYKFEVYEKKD

[1] = Relative influx was determined by taking the ratio vs MTX in L1210 cell line; assay type: functional
[2] = Inhibitory activity for L1210 Glycinamide ribotide formyltransferase; design: species or system Mus musculus
[3] = Inhibitory activity for Lactobacillus casei Glycinamide ribotide formyltransferase; design: species or system Lacticaseibacillus casei

Row | SMILES | IC50 (L1210) | Ki (Dihydrofolate reductase) | IC50 [2] | IC50 [3] | Relative influx [1]
1 | CC(Cc1cnc2nc(N)nc(N)c2c1)c1ccc(C(=O)NC(CCC(=O)O)C(=O)O)cc1 (stereo unspecified) | 23.9 nM | 0.007 nM | – | – | 1.43
2 | CCC(CC1CNc2nc(N)nc(O)c2C1)c1ccc(C(=O)NC(CCC(=O)O)C(=O)O)cc1 (stereo unspecified) | 34.6 nM | > 1000 nM | 660 nM | 80 nM | 1.36
3 | Nc1nc(O)c2c(n1)CCC(CNc1ccc(C(=O)NC(CCC(=O)O)C(=O)O)cc1)C2 (stereo unspecified) | 57.2 nM | > 1000 nM | 500 nM | 10 nM | 1.54

More lines, in order of falling IC50 (L1210), values ahead:

Row | IC50 (L1210) | Ki (Dihydrofolate reductase) | IC50 [2] | IC50 [3] | SMILES | Relative influx [1]
4 | 50.3 nM | > 1000 nM | 1500 nM | 17 nM | CC(CC1CNc2nc(N)nc(O)c2C1)c1ccc(C(=O)NC(CCC(=O)O)C(=O)O)cc1 (stereo unspecified) | 1.72
5 | 12.1 nM | 0.013 nM | – | – | CCC(Cc1cnc2nc(N)nc(N)c2c1)c1ccc(C(=O)NC(CCC(=O)O)C(=O)O)cc1 (stereo unspecified) | 1.32
